What was measured:
Assay type in all cases: in vivo
[1] = system: pigweed (Amaranthus retroflexus); assay: Test A postemergence pigweed; settings: 0 to 100 scale, 0 is no effect, 100 is complete control
In short: (§1)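 Injury was scored by eye on a 0 to 100 scale after about 10 days in the greenhouse, with 100 meaning complete control. Preemergence treatment was a directed spray onto soil over seeds; postemergence treatment went onto one- to two-leaf plants 2–10 cm tall.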

[2] = system: crabgrass, large (large crabgrass, Digitaria sanguinalis); assay: Test A postemergence crabgrass, large; settings: 0 to 100 scale, 0 is no effect, 100 is complete control
From the text: (§2) Seeds of plant species selected from barnyardgrass (Echinochloa crus-galli), kochia (Kochia scoparia), ragweed (common ragweed, Ambrosia elatior), ryegrass, Italian (Italian ryegrass, Lolium multiflorum), crabgrass, large (large crabgrass, Digitaria sanguinalis), foxtail, giant (giant foxtail, Setaria faberii), morningglory (Ipomoea spp.), pigweed (Amaranthus retroflexus), velvetleaf (Abutilon theophrasti), wheat (Triticum aestivum), and corn (Zea mays) were planted into a blend of loam soil and sand and treated preemergence with a directed soil spray using test chemicals formulated in a non-phytotoxic solvent mixture which included a surfactant.
(§3) At the same time, plants selected from these crop and weed species and also blackgrass (Alopecurus myosuroides), and galium (catchweed bedstraw, Galium aparine) were planted in pots containing the same blend of loam soil and sand and treated with postemergence applications of test chemicals formulated in the same manner. Plants ranged in height from 2 to 10 cm and were in the one- to two-leaf stage for the postemergence treatment. Treated plants and untreated controls were maintained in a greenhouse for approximately 10 d, after which time all treated plants were compared to untreated controls and visually evaluated for injury. Plant response ratings, summarized in Table A, are based on a 0 to 100 scale where 0 is no effect and 100 is complete control. A dash (-) response means no test result.

[3] = system: barnyardgrass (Echinochloa crus-galli); assay: Test A preemergence barnyardgrass; settings: 0 to 100 scale; for Barnyardgrass plant response rating: 125 g ai/ha, 0 no effect, 100 complete control; for Plant response rating, Barnyardgrass: 500 g ai/ha, 0 is no effect, 100 is complete control
In short: as §1

[4] = system: morningglory (Ipomoea spp.); assay: Test A postemergence morningglory; settings: 0 to 100 scale, 0 is no effect, 100 is complete control
From the text: as §2, §3

[5] = system: morningglory (Ipomoea spp.); assay: Test A preemergence morningglory; settings: 0 to 100 scale, 0 no effect, 100 complete control
From the text: as §2, §3

rice (Oryza sativa) = assay: Test B flooded paddy test rice; settings: Table B, Flood, 250 g ai/ha, scale 0 to 100
In short: (§4)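 2-leaf plants; flood 3 cm over soil; cpd into paddy water; water depth kept; greenhouse 13–15 d; visual rating vs controls.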

[6] = system: foxtail, giant (giant foxtail, Setaria faberii); assay: Test A preemergence foxtail, giant; settings: 0 to 100 scale, 0 no effect, 100 complete control
In short: as §1

[7] = system: barnyardgrass (Echinochloa crus-galli); assay: Test A postemergence barnyardgrass; settings: 0 to 100 scale, 0 is no effect, 100 is complete control
In short: as §1

[8] = system: pigweed (Amaranthus retroflexus); assay: Test A preemergence pigweed; settings: 0 to 100 scale, 0 no effect, 100 complete control
In short: as §1

[9] = system: velvetleaf (Abutilon theophrasti); assay: Test A preemergence velvetleaf; settings: 0 to 100 scale, 0 no effect, 100 complete control
From the text: as §2, §3

[10] = system: velvetleaf (Abutilon theophrasti); assay: Test A postemergence velvetleaf; settings: 0 to 100 scale, 0 is no effect, 100 is complete control
From the text: as §2, §3

corn (Zea mays) [11] = assay: Test A preemergence corn; settings: 0 to 100 scale; for Corn plant response rating: 125 g ai/ha, 0 no effect, 100 complete control; for Plant response rating, Corn: 500 g ai/ha, 0 is no effect, 100 is complete control
From the text: as §2, §3

corn (Zea mays) [12] = assay: Test A postemergence corn; settings: 0 to 100 scale, 0 is no effect, 100 is complete control
In short: as §1

[13] = system: sedge, umbrella (small-flower umbrella sedge, Cyperus difformis); assay: Test B flooded paddy test sedge, umbrella; settings: Table B, Flood, 250 g ai/ha, scale 0 to 100
In short: as §4

[14] = system: barnyardgrass (Echinochloa crus-galli); assay: Test B flooded paddy test barnyardgrass; settings: Table B, Flood, 250 g ai/ha, scale 0 to 100
In short: as §4

[15] = system: wheat (Triticum aestivum); assay: Test A preemergence wheat; settings: 0 to 100 scale, 0 no effect, 100 complete control
From the text: as §2, §3

[16] = system: foxtail, giant (giant foxtail, Setaria faberii); assay: Test A postemergence foxtail, giant; settings: 0 to 100 scale, 0 is no effect, 100 is complete control
In short: as §1

[17] = system: ducksalad (Heteranthera limosa); assay: Test B flooded paddy test ducksalad; settings: Table B, Flood, 250 g ai/ha, scale 0 to 100
In short: as §4

[18] = system: wheat (Triticum aestivum); assay: Test A postemergence wheat; settings: 0 to 100 scale, 0 is no effect, 100 is complete control
In short: as §1

[19] = system: crabgrass, large (large crabgrass, Digitaria sanguinalis); assay: Test A preemergence crabgrass, large; settings: 0 to 100 scale; for Crabgrass, Large plant response rating: 125 g ai/ha, 0 no effect, 100 complete control; for Plant response rating, Crabgrass, Large: 500 g ai/ha, 0 is no effect, 100 is complete control
From the text: as §2, §3

Row | Compound | Plant response rating, Pigweed ([1]; 125 g ai/ha) | Plant response rating, Pigweed ([1]; 500 g ai/ha) | Plant response rating, Crabgrass, Large ([2]; 125 g ai/ha) | Plant response rating, Crabgrass, Large ([2]; 500 g ai/ha) | Barnyardgrass plant response rating [3] | Plant response rating, Barnyardgrass [3] | Plant response rating, Morningglory ([4]; 125 g ai/ha) | Plant response rating, Morningglory ([4]; 500 g ai/ha) | Morningglory plant response rating ([5]; 125 g ai/ha) | Morningglory plant response rating ([5]; 500 g ai/ha) | Plant response rating (rice (Oryza sativa)) | Foxtail, Giant plant response rating ([6]; 125 g ai/ha) | Foxtail, Giant plant response rating ([6]; 500 g ai/ha) | Plant response rating, Barnyardgrass ([7]; 125 g ai/ha) | Plant response rating, Barnyardgrass ([7]; 500 g ai/ha) | Pigweed plant response rating ([8]; 125 g ai/ha) | Pigweed plant response rating ([8]; 500 g ai/ha) | Velvetleaf plant response rating ([9]; 125 g ai/ha) | Velvetleaf plant response rating ([9]; 500 g ai/ha) | Plant response rating, Velvetleaf ([10]; 125 g ai/ha) | other results
1 | O=C1NCCC(c2ccc(F)cc2)C1C(=O)Nc1ccccc1C(F)(F)F (racemic) [Compound 4] | 0 | 0 | 40 | 70 | 0 | 50 | 0 | 0 | 0 | 0 | 0 | 10 | 70 | 0 | 20 | 0 | 0 | 0 | 0 | 0 | Plant response rating, Velvetleaf ([10]; 500 g ai/ha): 0; Corn plant response rating (corn (Zea mays) [11]): 0; Plant response rating, Corn (corn (Zea mays) [11]): 0; Plant response rating, Corn (corn (Zea mays) [12]; 125 g ai/ha): 0; Plant response rating, Corn (corn (Zea mays) [12]; 500 g ai/ha): 0; Plant response rating [13]: 0; Plant response rating [14]: 0; Wheat plant response rating ([15]; 125 g ai/ha): 0; Wheat plant response rating ([15]; 500 g ai/ha): 0; Plant response rating, Foxtail, Giant ([16]; 125 g ai/ha): 0; Plant response rating, Foxtail, Giant ([16]; 500 g ai/ha): 0; Plant response rating [17]: 0; Plant response rating, Wheat ([18]; 125 g ai/ha): 0; Plant response rating, Wheat ([18]; 500 g ai/ha): 0; Crabgrass, Large plant response rating [19]: 90; Plant response rating, Crabgrass, Large [19]: 90
2 | O=C1NCCC(c2ccccc2)C1C(=O)Nc1ccccc1F (racemic) [Compound 3] | 0 | 0 | 0 | 0 | 0 | 0 | 0 | 0 | 0 | 0 | 0 | 0 | 0 | 0 | 0 | 0 | 0 | 0 | 0 | 0 | Plant response rating, Velvetleaf ([10]; 500 g ai/ha): 0; Corn plant response rating (corn (Zea mays) [11]): 0; Plant response rating, Corn (corn (Zea mays) [11]): 0; Plant response rating, Corn (corn (Zea mays) [12]; 125 g ai/ha): 0; Plant response rating, Corn (corn (Zea mays) [12]; 500 g ai/ha): 0; Plant response rating [13]: 0; Plant response rating [14]: 0; Wheat plant response rating ([15]; 125 g ai/ha): 0; Wheat plant response rating ([15]; 500 g ai/ha): 20; Plant response rating, Foxtail, Giant ([16]; 125 g ai/ha): 0; Plant response rating, Foxtail, Giant ([16]; 500 g ai/ha): 0; Plant response rating [17]: 0; Plant response rating, Wheat ([18]; 125 g ai/ha): 0; Plant response rating, Wheat ([18]; 500 g ai/ha): 0; Crabgrass, Large plant response rating [19]: 0; Plant response rating, Crabgrass, Large [19]: 30
3 | O=C1NCCC(c2ccc(F)cc2)C1C(=O)Nc1ccccc1F (racemic) [Compound 5] | 0 | 0 | 0 | 0 | 0 | 30 | 0 | 0 | 0 | 0 | 0 | 30 | 50 | 0 | 30 | 0 | 0 | 0 | 0 | 0 | Plant response rating, Velvetleaf ([10]; 500 g ai/ha): 0; Corn plant response rating (corn (Zea mays) [11]): 0; Plant response rating, Corn (corn (Zea mays) [11]): 0; Plant response rating, Corn (corn (Zea mays) [12]; 125 g ai/ha): 0; Plant response rating, Corn (corn (Zea mays) [12]; 500 g ai/ha): 0; Plant response rating [13]: 0; Plant response rating [14]: 0; Wheat plant response rating ([15]; 125 g ai/ha): 0; Wheat plant response rating ([15]; 500 g ai/ha): 0; Plant response rating, Foxtail, Giant ([16]; 125 g ai/ha): 0; Plant response rating, Foxtail, Giant ([16]; 500 g ai/ha): 0; Plant response rating [17]: 0; Plant response rating, Wheat ([18]; 125 g ai/ha): 0; Plant response rating, Wheat ([18]; 500 g ai/ha): 0; Crabgrass, Large plant response rating [19]: 60; Plant response rating, Crabgrass, Large [19]: 90

From patent US9944602B2, “Piperidinone herbicides” (E. I. DU PONT DE NEMOURS AND COMPANY, priority 2014, dated 2018)
